Data on 27 compounds can be found in US10954253B2, “1,2-dihydro-3H-pyrazolo[3,4-d]pyrimidin-3-one derivative as Wee1 inhibitor” (SHIJIAZHUANG SAGACITY NEW DRUG DEVELOPMENT CO., LTD., priority 2017, dated 2021).

The experiment addresses Wee1 (Homo sapiens (Human), UniProt P30291). Briefly: In vitro enzymatic inhibitory activity (33P-ATP filter-binding kinase assay, MBP substrate). In kind it is biochemical. The following applies: Wee-1 150 nM, MBP 20 μM. A digest of the protocol:
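Wee1 at 150 nM with 20 μM MBP substrate in pH 7.5 HEPES buffer (10 mM MgCl2, 2 mM DTT, 1% DMSO) was preincubated 20 min at RT with compounds in a 10-point 3-fold dilution series. The reaction was started with ^33P-ATP and run 2 h at RT. Kinase activity was measured by filter binding.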

As a reminder, the IC50 is the concentration at which inhibition is half-maximal.

Wee1, sequence (P30291 whole entry): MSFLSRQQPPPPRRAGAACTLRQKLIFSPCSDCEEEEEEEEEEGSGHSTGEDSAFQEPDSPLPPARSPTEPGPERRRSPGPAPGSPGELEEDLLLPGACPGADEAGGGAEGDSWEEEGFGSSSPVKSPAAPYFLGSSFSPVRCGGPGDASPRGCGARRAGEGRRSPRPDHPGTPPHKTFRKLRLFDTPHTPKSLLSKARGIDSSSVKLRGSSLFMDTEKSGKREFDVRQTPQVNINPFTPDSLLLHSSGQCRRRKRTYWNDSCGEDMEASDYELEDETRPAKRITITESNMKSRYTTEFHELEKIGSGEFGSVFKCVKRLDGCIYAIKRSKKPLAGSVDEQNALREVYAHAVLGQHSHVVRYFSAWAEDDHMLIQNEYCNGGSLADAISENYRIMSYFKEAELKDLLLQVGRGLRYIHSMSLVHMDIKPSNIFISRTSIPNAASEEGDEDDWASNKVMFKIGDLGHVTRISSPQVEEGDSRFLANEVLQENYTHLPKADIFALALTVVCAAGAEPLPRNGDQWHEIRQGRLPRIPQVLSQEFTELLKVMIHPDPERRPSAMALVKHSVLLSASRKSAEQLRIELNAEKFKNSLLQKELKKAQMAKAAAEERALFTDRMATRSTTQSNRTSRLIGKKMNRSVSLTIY

For the compound `C=CCn1c(=O)c2cnc(Nc3ccc(N4CCC5(CCN(C)CC5)CC4)c(F)c3)nc2n1-c1cccc(C(C)(C)O)n1` [Embodiment 34, 2-allyl-6((3-fluoro-4-(9-methyl-3,9-diazaspiro[5.5]undecan-3-yl)phenyl)amino)-1-(6-(2-hydroxypropan-2-yl)pyridin-2-yl)-1H-pyrazolo[3,4-d]pyrimidin-3(2H)-one], the IC50 was determined as 120 nM.

The compound `C=CCn1c(=O)c2cnc(Nc3ccc(N4CCC5(CCN(C)CC5)CC4)cc3C)nc2n1-c1cccc(C(C)(C)O)n1` [Embodiment 35, 2-allyl-1-(6-(2-hydroxypropan-2-yl)pyridin-2-yl)-6((2-methyl-4-(9-methyl-3,9-diazaspiro[5.5]undecan-3-yl)phenyl)amino)-1H-pyrazolo[3,4-d]pyrimidine-3(2H)-one] showed an IC50 of 241 nM.

The compound `C=CCn1c(=O)c2cnc(Nc3ccc(N4CCC5(CCN(C)CC5)CC4)c(C)c3)nc2n1-c1cccc(C(C)(C)O)n1` [Embodiment 36, 2-allyl-1-(6-(2-hydroxypropan-2-yl)pyridin-2-yl)-6((3-methyl-4-(9-methyl-3,9-diazaspiro[5.5]undecan-3-yl)phenyl)amino)-1H-pyrazolo[3,4-d]pyrimidine-3(2H)-one] had an IC50 of 57.1 nM.

The compound `C=CCn1c(=O)c2cnc(Nc3ccc(N4CCC5(CCN(C)CC5)CC4)cc3OC)nc2n1-c1cccc(C(C)(C)O)n1` [Embodiment 37, 2-allyl-1-(6-(2-hydroxypropan-2-yl)pyridin-2-yl)-6((2-methoxy-4-(9-methyl-3,9-diazaspiro[5.5]undecan-3-yl)phenyl)amino)-1H-pyrazolo[3,4-d]pyrimidin-3(2H)-one] yielded an IC50 of 328 nM.

As to `C=CCn1c(=O)c2cnc(Nc3ccc(N4CCC5(CCN(C)CC5)CC4)c(OC)c3)nc2n1-c1cccc(C(C)(C)O)n1` [Embodiment 38, 2-allyl-1-(6-(2-hdyroxypropan-2-yl)pyridin-2-yl)-6((3-methoxy-4-(9-methyl-3,9-diazaspiro[5.5]undecan-3-yl)phenyl)amino)-1H-pyrazolo[3,4-d]pyrimidine-3(2H)-one], the IC50 came out at 20.7 nM. This IC50 is about 16-fold lower than that of the compound before.

For the compound `C=CCn1c(=O)c2cnc(Nc3ccc(N4CCC5(CCN(C)CC5)CC4)cc3)nc2n1-c1cccc(C2(O)CCC2)n1` [Embodiment 40, 2-allyl-1-(6-(1-hydroxycyclobutyl)pyridin-2-yl)-6-((4-(9-methyl-3,9-diazaspiro[5.5]undecan-3-yl)phenyl)amino)-1H-pyrazolo[3,4-d]pyrimidin-3(2H)-one], the half-inhibitory concentration (IC50) turned out to be 30.7 nM.

Regarding `C=CCn1c(=O)c2cnc(Nc3ccc(N4CCC5(CCN(C)CC5)CC4)cc3)nc2n1-c1cccc(C(C)(O)C(F)(F)F)n1` (stereo not drawn) [Embodiment 41, 2-allyl-6-((4-(9-methyl-3,9-diazaspiro[5.5]undecan-3-yl)phenyl)amino)-1-(6-(1,1,1-trifluoro-2-hydroxypropan-2-yl)pyridin-2-yl)-1H-pyrazolo[3,4-d]pyrimidin-3(2H)-one], the concentration for half-maximal inhibition (IC50) came to 13.1 nM.

The compound `C=CCn1c(=O)c2cnc(Nc3ccc(N4CCC5(CCN(C)CC5)CC4)cc3)nc2n1-c1cccc(C2(O)COC2)n1` [Embodiment 42, 2-allyl-1-(6-(3-hydroxyoxetan-3-yl)pyridin-2-yl)-6-((4-(9-methyl-3,9-diazaspiro[5.5]undecan-3-yl)phenyl)amino)-1H-pyrazolo[3,4-d]pyrimidin-3(2H)-one] returned an IC50 of 17.4 nM.

`C=CCn1c(=O)c2cnc(Nc3ccc(N4CCC5(CCN(C)CC5)CC4)cc3)nc2n1-c1cccc(N2CCCC2=O)n1` [Embodiment 44]: the IC50 was 12.6 nM.

Compound `C=CCn1c(=O)c2cnc(Nc3ccc(N4CCC5(CCN(C)CC5)CC4)cc3)nc2n1-c1cccc(C2CC2)n1` [Embodiment 45, 2-allyl-1-(6-cyclopropylpyridin-2-yl)-6-((4-(9-methyl-3,9-diazaspiro[5.5]undecan-3-yl)phenyl)amino)-1H-pyrazolo[3,4-d]pyrimidin-3(2H)-one] had an IC50 of 7.4 nM. Against the preceding compound, the IC50 is about 1.7-fold lower.

`C=CCn1c(=O)c2cnc(Nc3ccc(N4CCC5(CCN(C)CC5)CC4)cc3)nc2n1-c1cccc(C(F)(F)F)n1` [Embodiment 46, 2-allyl-6-((4-(9-methyl-3,9-diazaspiro[5.5]undecane-3-yl)phenyl)amino)-1-(6-(trifluoromethyl)pyridin-2-yl)-1H-pyrazolo[3,4-d]pyrimidine-3(2H)-one] displayed a concentration for half-maximal inhibition (IC50) of 44.6 nM.

Consider `C=CCn1c(=O)c2cnc(Nc3ccc(N4CCC5(CCN(C)CC5)CC4)cc3)nc2n1-c1cccc(OC)n1` [Embodiment 47, 2-allyl-1-(6-methoxypyridin-2-yl)-6-((4-(9-methyl-3,9-diazaspiro[5.5]undecan-3-yl)phenyl)amino)-1H-pyrazolo[3,4-d]pyrimidin-3(2H)-one], for which the IC50 came to 3 nM. Against the preceding compound, the IC50 is about 15-fold lower.

As for `C=CCn1c(=O)c2cnc(Nc3ccc(N4CCC5(CCN(C)CC5)CC4)cc3)nc2n1-c1cccc(OC(C)C)n1` [Embodiment 48, 2-allyl-1-(6-isopropoxypyridin-2-yl)-6-((4-(9-methyl-3,9-diazaspiro[5.5]undecan-3-yl)phenyl)amino)-1H-pyrazolo[3,4-d]pyrimidin-3(2H)-one], the 50% inhibitory concentration (IC50) amounted to 6.3 nM.

The compound `C=CCn1c(=O)c2cnc(Nc3ccc(N4CCC5(CCN(C)CC5)CC4)cc3)nc2n1-c1cccc(C(C)(F)F)n1` [Embodiment 49, 2-allyl-1-(6-(1,1-difluoroethyl)pyridin-2-yl)-6-((4-(9-methyl-3,9-diazaspiro[5.5]undecan-3-yl)phenyl)amino)-1H-pyrazolo[3,4-d]pyrimidin-3(2H)-one] returned an IC50 of 3.1 nM.

Regarding `C=CCn1c(=O)c2cnc(Nc3ccc(N4CCC5(CCN(C)CC5)CC4)cc3)nc2n1-c1cccc(OC2CC2)n1` [Embodiment 50, 2-allyl-1-(6-cyclopropoxypyridin-2-yl)-6-((4-(9-methyl-3,9-diazaspiro[5.5]undecan-3-yl)phenyl)amino)-1H-pyrazolo[3,4-d]pyrimidin-3(2H)-one], the IC50 is 2.5 nM.

Compound `C=CCn1c(=O)c2cnc(Nc3ccc(N4CCC5(CCN(C)CC5)CC4)cc3)nc2n1-c1cccc(OCC)n1` [Embodiment 51, 2-allyl-1-(6-ethoxypyridin-2-yl)-6-((4-(9-methyl-3,9-diazaspiro[5.5]undecan-3-yl)phenyl)amino)-1H-pyrazolo[3,4-d]pyrimidin-3(2H)-one] registered an IC50 of 2.8 nM.

For `C=CCn1c(=O)c2cnc(Nc3ccc(N4CCC5(CCN(C)CC5)CC4)cc3)nc2n1-c1cccc(O[C@@H]2CCOC2)n1` [Embodiment 52, (R)-2-allyl-6-((4(9-methyl-3,9-diazaspiro[5.5]undecan-3-yl)phenyl)amino)-1-(6-((tetrahydrofuran-3-yl)oxy)pyridin-2-yl)-1H-pyrazolo[3,4-d]pyrimidin-3(2H)-one], the IC50 came out at 71 nM.

For the compound `C=CCn1c(=O)c2cnc(Nc3ccc(N4CCC5(CCN(C)CC5)CC4)cc3)nc2n1-c1cccc(OC2COC2)n1` [Embodiment 53, 2-allyl-6-((4(9-methyl-3,9-diazaspiro[5.5]undecan-3-yl)phenyl)amino)-1-(6-(oxetan-3-yloxy)pyridin-2-yl)-1H-pyrazolo[3,4-d]pyrimidin-3(2H)-one], the IC50 was 63 nM. The IC50 values of the last two compounds are within 1.5-fold of each other.

Compound `C=CCn1c(=O)c2cnc(Nc3ccc(N4CCC5(CCN(C)CC5)CC4)cc3)nc2n1-c1cccc(OC2CCC2)n1` [Embodiment 54, 2-allyl-1-(6-cyclobutoxypyridin-2-yl)-6-((4-(9-methyl-3,9-diazaspiro[5.5]undecan-3-yl)phenyl)amino)-1H-pyrazolo[3,4-d]pyrimidin-3(2H)-one] gave an IC50 of 57 nM. This IC50 and that of the compound before are within 1.5-fold of each other.

For the compound `C=CCn1c(=O)c2cnc(Nc3ccc(N4CCC5(CCN(C)CC5)CC4)cc3)nc2n1-c1cccc(O[C@H]2CCOC2)n1` [Embodiment 55, (S)-2-allyl-6-((4(9-methyl-3,9-diazaspiro[5.5]undecan-3-yl)phenyl)amino)-1-(6-((tetrahydrofuran-3-yl)oxy)pyridin-2-yl)-1H-pyrazolo[3,4-d]pyrimidin-3(2H)-one], the half-maximal inhibitory concentration (IC50) is 90 nM. This IC50 lies about 1.6-fold higher than the previous one.

The compound `C=CCn1c(=O)c2cnc(Nc3ccc(N4CCC5(CCN(C)CC5)CC4)cc3)nc2n1-c1cccc(N2CCN(C)C2=O)n1` [Embodiment 56] registered an IC50 of 74 nM.

For the compound `C=CCn1c(=O)c2cnc(Nc3ccc(N4CCC5(CCN(C)CC5)CC4)cc3)nc2n1-c1cccc(N2CCOC2=O)n1` [Embodiment 57, 3-(6-(2-allyl-6((4-(9-methyl-3,9-diazaspiro[5.5]undecan-3-yl)phenyl)amino)-3-oxo-2,3-dihydro-1H-pyrazolo[3,4-d]pyrimidin-1-yl)pyridin-2-yl)oxazolidin-2one], the IC50 turned out to be 47 nM.

In turn, `C=CCn1c(=O)c2cnc(Nc3ccc(N4CCC5(CCN(C)CC5)CC4)cc3)nc2n1-c1cccc(N2CCNC2=O)n1` [Embodiment 58, 2-allyl-6-((4(9-methyl-3,9-diazaspiro[5.5]undecan-3-yl)phenyl)amino)-1-(6-(2-oxo-1-imidazolidinyl)pyridin-2-yl)-1H-pyrazolo[3,4-d]pyrimidin-3(2H)-one] yielded an IC50 of 73 nM.

For `C=CCn1c(=O)c2cnc(Nc3ccc(N4CCC5(CCN(C)CC5)CC4)cc3)nc2n1-c1cccc(P(C)(C)=O)n1` [Embodiment 59, 2-allyl-1-(6-(dimethylphosphory)pyridin-2-yl)-6-((4-(9-methyl-3,9-diazaspiro[5.5]undecan-3-yl)phenyl)amino)-1H-pyrazolo[3,4-d]pyrimidin-3(2H)-one], the IC50 was determined as 22.6 nM. Against the preceding compound, the IC50 is about 3.2-fold lower.

In the case of `C=CCn1c(=O)c2cnc(Nc3ccc(N4CCC5(CCN(CCF)CC5)CC4)cc3)nc2n1-c1cccc(C(C)(C)O)n1` [Embodiment 60], the IC50 is 14.8 nM.

Turning to `C=CCn1c(=O)c2cnc(Nc3ccc(N4CCC5(CCN(CC(F)F)CC5)CC4)cc3)nc2n1-c1cccc(C(C)(C)O)n1` [Embodiment 61], the IC50 was determined as 15.7 nM.

The compound `C=CCn1c(=O)c2cnc(Nc3ccc(N4CCC5(CCN(CCC#N)CC5)CC4)cc3)nc2n1-c1cccc(C(C)(C)O)n1` [Embodiment 62, 3-(9-(4((2-allyl-1(6-(2-hydroxypropan-2-yl)pyridin-2-yl)-3-oxo-2,3-dihydro-1H-pyrazolo[3,4-d]pyrimidin-6-yl)amino)phenyl)-3,9-diazaspiro[5.5]undecan-3-yl)propionitrile] gave an IC50 of 36.1 nM.
